Results published in publication PMC9569450, “Dual Effect of Tryptamine on Prostate Cancer Cell Growth Regulation: A Pilot Study” (International Journal of Molecular Sciences, 2022).

Experiments:
[1] = test system: A549, HepG2, and PANC-1 cells; assay: MTT cell proliferation assay, other three cancer cell lines; type: cell-based; details: A549, HepG2, and PANC-1, text summary
Protocol: PC-3, LNCaP, RWPE-1, HepG2, A549, and PANC-1 cells were purchased from the National Collection of Authenticated Cell Cultures (Shanghai, China). […] All the above cell cultures were supplied with 10% fetal bovine serum and 1% penicillin-streptomycin. RWPE-1 cells were cultured in keratinocyte serum-free medium (K-SFM, Gibco, New York, NY, USA) supplemented with 50 mg/L bovine pituitary extract and 5 μg/L epidermal growth factor (EGF). All cell lines were grown in a humidified atmosphere of 5% CO2 at 37 °C.
Cells were seeded in 100 μL complete medium in a 96-well plate, at a density of 10,000 cells/well for LNCaP and 5000 cells/well for other cells. Cells were pre-incubated for 24 h to allow for adherence before removal of complete medium and treatment with various concentrations of compounds in fetal bovine serum (FBS)-free medium for 48 h. After treatment, 20 μL/well MTT (5 mg/mL) was added and incubated for 3–4 h at 37 °C, and then 100 μL/well DMSO was added for MTT assay. The plate was shaken on an orbital shaker for 10 min. Absorbance was measured using a microplate reader at 492 nm for the MTT assay (performed in triplicates). Cell viability was normalized to control. Half inhibitory concentration (IC50) was calculated by SPSS Statistics 17.0. […] The experiments were independently repeated two to three times.

PC-3 cells [2] = assay: Transwell migration assay, PC-3; type: cell-based, human; details: 24 h
Protocol: Cell migration was evaluated using 8-μm transwell filters (Costar Corning, Schiphol-Rijk, The Netherlands). Cells at a density of 5 × 10^4 were seeded to the upper chamber, and the chamber was filled with FBS-free medium. Cells were incubated overnight to allow for adherence; then, the lower chamber was replaced with 10% FBS medium as a chemo-attractant. Following a 24 h incubation, non-migrating cells on the upper surface of the insert membrane were gently removed by cotton swabs and migrated cells on the lower surface of the insert membrane were fixed by 4% paraformaldehyde and stained with 0.1% crystal violet for 20 min. Migrated cells on each membrane were photographed and counted at 100× magnification field at six random fields.

PC-3 cells [3] = assay: Cell viability of PC-3 cells after 24 h (Figure S1); type: cell-based, human
Protocol: Figure S1. Cell viability of PC-3 cell treated with various concentrations of tryptamine […]
Figure S2. Liver function test results and effects of tryptamine and 3-HAA treatments on the tumor growth of PC-3 xenograft mouse model. (A and B) Appearance and aspartate aminotransferase (AST, U/L) value of the liver of PC-3 xenograft mice received intraperitoneal administration of tryptamine (80 mg/kg, n = 6) and intratumoral administration of tryptamine (1 mg/100 mm3, n = 5), respectively. Size of the tumors of PC-3 xenograft mice received intratumoral administration of (C and E) tryptamine (1 mg/100 mm3) and 3-HAA (200 mg/kg) and intraperitoneal administration of (D and F) tryptamine (80 mg/kg) and 3-HAA (200 mg/kg), respectively.
Figure S3. Heatmap overview of altered PC-3 cell metabolic profiles in LC-MS (A) positive and (B) negative ion modes before and after tryptamine treatment.
Figure S4. MS/MS analyses of the discriminant metabolites in panels.
Figure S1. Cell viability of PC-3 cell treated with various concentrations of tryptamine for 24h. […]

PC-3 cells [4] = assay: UPLC-HRMS cell metabolomics of tryptamine-treated PC-3 cells; type: cell-based, human
Protocol: The cells were seeded in 10 cm Petri dishes at a density of 1 × 10^6 cells/dish. After incubation overnight for adherence, cells were subjected to treatment with tryptamine (0.3 mM) in FBS-free medium, and control samples were treated with FBS-free medium. […] For cellular metabolite extraction, cells were first washed with PBS for three times, then 8 mL extraction solvent (methanol: acetonitrile: 0.5 M formic acid, 2:2:1 v/v/v) was added for quenching and cell lysis. The mixture was vortexed and sonicated on ice for 15 min to extract metabolites, and then centrifuged at 13,000 rpm for 10 min at 4 °C. The supernatant was collected and dried under vacuum. Before analysis, the sample was reconstituted in 100 μL H2O.
The chromatographic method involved elution with water with 0.1% acetic acid (A) and acetonitrile (B). The gradient program of cell metabolomics was as follows: 0–1 min 98–99% A, 1–3 min 2–30% A, 3–8 min 30–50% A, 8–10 min 50–95% A, 10–15 min 95–95% A. The flow rate was constant at 0.3 mL/min. […] The column was maintained at 35 °C. After each run, the gradient was re-equilibrated to its initial conditions over 6 min. Sample injection volume was 10 μL. The main mass spectrometer parameters were set as follows: capillary temperature 300 °C; capillary voltage and tube lens 20 V and 35 V, respectively, for positive mode, and 40 V and 80 V, respectively, for negative mode; spray voltage 4.0 kV in positive mode, and 2.5 kV and 2.8 kV in negative mode for serum and cell metabolite profiling, respectively; auxiliary gas, sheath gas and sweep gas flow rate 10, 40, and 0 arbitrary units, respectively. Data were acquired in the m/z range of 50–1000. The resolving power was 60,000 at m/z 195. Ultra-high-purity argon (≥99.999%) was used as the collision gas in UPLC–MS/MS experiments, and normalized collision voltages were in the range of 15–55 V.
Raw data was pre-processed using Progenesis QI software version 2.4 (Nonlinear Dynamics, Waters Corporation, Milford, CT, USA), which included peak picking and alignment. A data matrix table containing metabolic peak identity (retention time (Rt and m/z pair)) and peak abundances in samples was obtained. We used our previously designed FORTRAN program for data post-processing, including analyses of adducts, in-source fragments and chloride isotopic ions, contaminant and artefact ion removal, QC-based scaling, and normalization. Principal components analysis (PCA) and oPLS-DA (orthogonal partial least squares-discriminant analysis) were applied for sample classification using the PLS Toolbox software (version 8.9.1, Eigenvector Research, Inc., Manson, WA, USA) based on Matlab R2021a (version 9.10.0, MathWorks, Natick, MA, USA). Differential metabolites were identified with p-value < 0.05 and variance importance in projection (VIP) value greater than 1. The metabolites were identified based on accurate mass matching to theoretical values within a 2 mDa tolerance and MS/MS matching with spectral data in Human Metabolome Database (HMDB) and/or manual analysis of MS/MS spectra (Figure S4). MetaboAnalyst 5.0 was used for metabolic pathway and network analyses.

[5] = 0.3 mM, treatment/control ratio, negative = decreased

## NCCc1c[nH]c2ccccc12 [Tryptamine]
[1]
  IC50: 350 to 460 µM
PC-3 cells [2]; PC-3, 0.075 mM
  migrated cells reduced by: 22%
PC-3 cells [2]; PC-3, 0.15 mM
  percentage of migrated cells: 58%
PC-3 cells [2]; PC-3, 0.3 mM
  percentage of migrated cells: 23%
PC-3 cells [3]; Homo sapiens, PC-3, 0.3 mM, read-out: percentage of viable cells
  viability at 300 µM: 75%
PC-3 cells [3]; PC-3, 0.15 mM
  cell viability compared to the control group: no significant change in cell viability
PC-3 cells [4]; 0.3 mM, treatment/control ratio
  Fold Change of ketoleucine: 0
PC-3 cells [4]; [5]
  Fold Change of arginine: −1.9
  Fold Change of aspartic acid: −3.2
  Fold Change of creatine: −2.0
  Fold Change of pantothenic acid: −1.6
  Fold Change of proline: −2.0
  Fold Change of spermidine: −2.1
  Fold Change of spermine: −2.1
PC-3 cells [4]; 0.3 mM, treatment/control ratio, positive = increased
  Fold Change of 5-HT: 1.4 × 10^3
PC-3 cells [4]; tryptamine treated group
  aspartic acid, fold decrease compared to the control group: 3.2 fold
